From patent publication US20170182106A1, “COMPOSITION INCLUDING KIRENOL OR SIEGESBECKIA HERBA EXTRACT FOR MUSCLE FUNCTION IMPROVEMENT OR EXERCISE ABILITY ENHANCEMENT” (University-Industry Foundation, Yonsei University, priority 2014, published 2017)

Key:
Format in all cases: cell-based
p-mTOR = p-mTOR protein expression in L6 muscle cells (western blotting); details: 10 μM kirenol, 24 hours, vs 0.01% DMSO control, FIG. 1
Procedure: (§1) L6 myoblasts (American Type Culture Collection, Manassas, Va., USA), which are muscle cells, were incubated in Dulbecco's Modified Eagle's Medium (DMEM; Hyclone) containing 10% fetal bovine serum (FBS; Hyclone, Logan, Utah, USA), 100 U/mL penicillin, and 100 μg/mL streptomycin (Gibco, Grand Island, N.Y., USA). The L6 cells were treated with the Siegesbeckia glabrescens Mak. ethanol extract prepared according to the above Example 1-1, the Siegesbeckia pubescens Mak. ethanol extract prepared according to Example 2-1, or the Siegesbeckia orientalis L. ethanol extract prepared according to Example 3-1, each at a concentration of 10 ppm. Also, L6 cells were treated with 10 μM kirenol prepared according to Example 4. In this case, a group treated with 0.01% DMSO instead of being treated with a sample was prepared as a control group. […]
(§2) ECL western blotting detection reagents (Amersham, Tokyo, Japan) were used to color p-mTOR protein bands, and the G:BOX EF imaging system (Syngene, Cambridge, UK) was used to measure the densities of the colored protein bands. In this case, relative densities of protein bands of experimental groups treated with a sample were determined as a percentage (%), with the density of the control protein band being 100%. […]

myogenin = myogenin mRNA expression in TNF-α-treated differentiated L6 cells (RT-PCR); details: TNF-α 24 hours, kirenol 10, 40 μM, FIG. 4
Procedure: (§3) L6 myoblasts (American Type Culture Collection, Manassas, Va., USA), which are muscle cells, were incubated in DMEM (10% FBS, 100 U/mL penicillin, 100 μg/mL streptomycin). When the cell density reached about 80-85%, the cell culture medium was replaced with a DMEM growth medium supplemented with 2% FBS. The experiment was initiated after 6 days of differentiation. To induce muscle reduction, the differentiated L6 cells were treated with TNF-α for 24 hours and then with the ethanol extract of Siegesbeckia orientalis L. (10, 40 ppm) prepared according to Example 3-1 and kirenol (10, 40 μM) prepared according to Example 4. RT-PCR was carried out to measure mRNA expression levels of myogenin and MyoD, which are muscle differentiation regulatory factors. TRIzol Reagent (Invitrogen, Carlsbad, Calif., USA) was used for harvesting total RNA from the differentiated cells, and the total RNA was reverse transcribed. The RT-PCR analysis was carried out as follows: First, the RNA was reverse transcribed for cDNA synthesis by using a reverse transcriptase. RT-PCR was conducted using specific primers as listed below, and β-actin was used to indicate that a constant amount of mRNA was loaded into each lane.

MyoD = MyoD mRNA expression in TNF-α-treated differentiated L6 cells (RT-PCR); details: TNF-α 24 hours, kirenol 10, 40 μM, FIG. 4
Procedure: as §3

atrogin-1 = atrogin-1 mRNA expression in differentiated L6 cells (RT-PCR); details: kirenol 10, 40 μM, FIG. 6
MuRF1 = MuRF1 mRNA expression in differentiated L6 cells (RT-PCR); details: kirenol 10, 40 μM, FIG. 6
PGC-1α = PGC-1α protein expression in L6 muscle cells (western blotting); details: 10 μM kirenol, 24 hours, vs 0.01% DMSO control, FIG. 11
Procedure: as §1, with “(myoblast; American” for “(American”, “DMEM (Hyclone)” for “Dulbecco's Modified Eagle's Medium (DMEM; Hyclone)”, “to” for “to the above”, “1-1,” for “1-1, the”, “or” for “or the”, “group. 24 hours later, the L6 cells were dissolved in a RIPA (ELPIS-Biotech, Daejeon, Korea) buffer solution containing a proteinase inhibitor cocktail (Sigma-Aldrich, St. Louis, Mo., USA).” for “group.”
as §2, with “PGC-1α” for “p-mTOR”

C[C@@]1(CO)C[C@@H](O)C[C@@]2(C)C3CC[C@](C)([C@@H](O)CO)C=C3CC[C@H]12 (stereo in doubt) [kirenol, (1R,3S,4aS,4bS,7S,10aS)-1,2,3,4,4a,4b,5,6,7,9,10,10a-Dodecahydro-3-hydroxy-7-[(R)-1,2-dihydroxyethyl]-1,4a,7-trimethylphenanthrene-1-methanol]
protein expression level of p-mTOR (p-mTOR): increased | mRNA expression level of myogenin (myogenin): increases | mRNA expression level of MyoD (MyoD): increases | mRNA expression level of atrogin-1 (atrogin-1): reduces | mRNA expression level of MuRF1 (MuRF1): reduces | protein expression level of PGC-1α (PGC-1α): increased
